In PMC12677052, “Identification and rescue of congenital hyperinsulinism-associated ABCC8 mutations that impair KATP channel trafficking” (The Journal of Biological Chemistry, 2025):

Tests used:
Assay type in all cases: cell-based
[1] = target: T1, sulfonylurea receptor 1 (SUR1) (Homo sapiens, UniProt Q09428); experiment: Rb+ efflux inhibition in cells after […] overnight treatment and washout
T1 construct: gene ABCC8; human FLAG-tagged SUR1 (f-SUR1) coexpressed with human Kir6.2 in COSm6 cells; with Kir6.2 (KCNJ11)
T1 sequence (Q09428 whole entry): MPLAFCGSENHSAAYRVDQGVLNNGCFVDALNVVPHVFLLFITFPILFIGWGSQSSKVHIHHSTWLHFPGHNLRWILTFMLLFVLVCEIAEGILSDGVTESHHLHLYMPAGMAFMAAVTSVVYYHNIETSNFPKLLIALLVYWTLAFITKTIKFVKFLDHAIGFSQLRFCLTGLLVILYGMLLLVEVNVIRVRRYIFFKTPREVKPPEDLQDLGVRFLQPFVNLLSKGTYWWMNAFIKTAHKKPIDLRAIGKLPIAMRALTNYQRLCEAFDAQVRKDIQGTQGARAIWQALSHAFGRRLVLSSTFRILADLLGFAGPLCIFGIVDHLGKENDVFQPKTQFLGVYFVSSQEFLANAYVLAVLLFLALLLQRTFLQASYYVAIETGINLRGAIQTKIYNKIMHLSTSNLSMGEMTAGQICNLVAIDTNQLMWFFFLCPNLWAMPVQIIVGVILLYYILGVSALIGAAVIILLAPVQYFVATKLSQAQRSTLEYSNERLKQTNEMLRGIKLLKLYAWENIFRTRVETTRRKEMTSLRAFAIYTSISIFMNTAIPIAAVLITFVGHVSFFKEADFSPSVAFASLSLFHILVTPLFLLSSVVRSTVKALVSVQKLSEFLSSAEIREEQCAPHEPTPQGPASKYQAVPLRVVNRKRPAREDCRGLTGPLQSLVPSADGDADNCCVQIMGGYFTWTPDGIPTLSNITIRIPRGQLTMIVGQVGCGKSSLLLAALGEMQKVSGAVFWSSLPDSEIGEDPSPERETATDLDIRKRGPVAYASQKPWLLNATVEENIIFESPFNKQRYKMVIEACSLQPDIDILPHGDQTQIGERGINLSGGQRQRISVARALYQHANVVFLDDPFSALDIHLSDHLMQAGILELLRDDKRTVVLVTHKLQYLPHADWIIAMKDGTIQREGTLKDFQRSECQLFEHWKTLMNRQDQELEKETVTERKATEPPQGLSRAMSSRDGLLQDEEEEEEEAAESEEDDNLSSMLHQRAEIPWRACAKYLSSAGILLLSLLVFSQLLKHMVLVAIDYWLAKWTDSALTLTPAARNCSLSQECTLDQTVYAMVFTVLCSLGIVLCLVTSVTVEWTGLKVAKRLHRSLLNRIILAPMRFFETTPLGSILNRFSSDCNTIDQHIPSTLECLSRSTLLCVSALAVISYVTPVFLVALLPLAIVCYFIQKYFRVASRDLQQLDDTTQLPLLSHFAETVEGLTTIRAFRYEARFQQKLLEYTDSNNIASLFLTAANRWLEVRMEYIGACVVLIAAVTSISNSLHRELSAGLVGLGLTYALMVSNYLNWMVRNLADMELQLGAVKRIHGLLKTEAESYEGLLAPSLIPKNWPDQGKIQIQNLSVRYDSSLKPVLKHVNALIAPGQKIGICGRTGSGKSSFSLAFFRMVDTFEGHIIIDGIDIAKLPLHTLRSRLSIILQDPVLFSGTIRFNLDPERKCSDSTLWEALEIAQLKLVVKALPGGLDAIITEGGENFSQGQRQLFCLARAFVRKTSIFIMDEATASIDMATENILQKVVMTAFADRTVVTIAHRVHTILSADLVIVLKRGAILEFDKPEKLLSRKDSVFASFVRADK
T1 sequence (Q14654 whole entry partner): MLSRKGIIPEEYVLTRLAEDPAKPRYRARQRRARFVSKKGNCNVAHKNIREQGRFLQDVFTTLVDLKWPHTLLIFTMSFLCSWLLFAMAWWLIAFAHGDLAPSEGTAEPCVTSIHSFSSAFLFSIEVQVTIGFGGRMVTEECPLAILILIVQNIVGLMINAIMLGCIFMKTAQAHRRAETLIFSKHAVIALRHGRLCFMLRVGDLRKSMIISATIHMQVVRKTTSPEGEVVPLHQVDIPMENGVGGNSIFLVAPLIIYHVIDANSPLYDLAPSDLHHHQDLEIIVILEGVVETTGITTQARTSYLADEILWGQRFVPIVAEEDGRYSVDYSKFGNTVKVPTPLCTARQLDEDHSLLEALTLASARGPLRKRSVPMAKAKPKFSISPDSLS

[2] = target: T1, sulfonylurea receptor 1 (SUR1); experiment: inside-out patch-clamp dose-response
[3] = target: T2, sulfonylurea receptor 1 (SUR1) (Homo sapiens, UniProt Q09428, Y124F); experiment: inside-out patch-clamp dose-response
T2 construct: gene ABCC8; human FLAG-tagged SUR1 (f-SUR1) coexpressed with human Kir6.2 in COSm6 cells; with Kir6.2 (KCNJ11)
T2 sequence (Q09428 whole entry Y124F): as the sequence (Q09428 whole entry) above, with Y124F counted along it
T2 sequence (Q14654 whole entry, further chain): as the sequence (Q14654 whole entry partner) above

[4] = target: T3, sulfonylurea receptor 1 (SUR1) (Homo sapiens, UniProt Q09428, W143R); experiment: pharmacochaperone rescue in cells at […] (western blot, Rb+ efflux)
T3 construct: gene ABCC8; human FLAG-tagged SUR1 (f-SUR1) coexpressed with human Kir6.2 in COSm6 cells; with Kir6.2 (KCNJ11)
T3 sequence (Q09428 whole entry W143R): as the sequence (Q09428 whole entry) above, with W143R counted along it
T3 sequence (Q14654 whole entry partner): as the sequence (Q14654 whole entry partner) above

COc1ccc(Cl)cc1C(=O)NCCc1ccc(S(=O)(=O)NC(=O)NC2CCCCC2)cc1 [GBC, glibenclamide]
Rb+ efflux inhibition in cells after 10 μM overnight treatment and washout [1]: This reduction is due to GBC inhibition of channels already present at the cell surface.

Nc1ncnc2c1ncn2[C@@H]1O[C@H](COP(=O)(O)OP(=O)(O)O)[C@@H](O)[C@H]1O [MgADP]
EC50 [2]: 62.2 ± 18.8 µM | EC50 [3]: 224 ± 47.9 µM

CCCCNC(=O)NS(=O)(=O)c1ccc(C)cc1 [Tolb, tolbutamide]
pharmacochaperone rescue in cells at 200 μM (western blot, Rb+ efflux) [4]: N32K, P133R, W143R, and Y230C mutations showed clear albeit variable response to the three pharmacochaperones
